Marks after values point to notes of the source that are not given here. Ends that are not written are not given here.

One data set concerns the target T1, PlGF (Homo sapiens, UniProt P49763).
T1 construct: purchased R&D Systems
T1 sequence (P49763 19-170 isoform P49763-3 limits assumed): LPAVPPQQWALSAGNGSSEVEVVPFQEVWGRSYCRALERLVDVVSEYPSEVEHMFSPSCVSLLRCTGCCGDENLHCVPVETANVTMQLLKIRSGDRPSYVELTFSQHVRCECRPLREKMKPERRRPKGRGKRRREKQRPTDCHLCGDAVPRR
The data set can be described thus: Free peptide binding ELISA (FLAG epitope probe), PlGF-coated wells. The settings on record: peptide with C-terminal FLAG epitope. How it is done:
(§1) Competition assays were done with 2.5 or 25 U/ml heparin (Sigma, St. Louis, Mo.). BP1, 3, 4, and a scrambled version of BP3 (scrBP3) were synthesized with a linker followed by the FLAG epitope ([…] SEQ ID NO:5) at the C-terminus. Thirty minutes after addition of the first reagent, the second reagent was added, followed by another 30 minute incubation. Peptide binding was assessed by probing for the FLAG epitope (Prickett et al., Biotechniques 7:580-9, 1989; Castrucci et al., J. Virol. 66:4647-53, 1992). Absorbance was read at 490 nm.
For orientation: ELISA stands for enzyme-linked immunosorbent assay.

The target of another data set is T2, VEGF165 (Homo sapiens, UniProt P15692).
T2 construct: purchased R&D Systems
T2 sequence (P15692 27-191 isoform P15692-4): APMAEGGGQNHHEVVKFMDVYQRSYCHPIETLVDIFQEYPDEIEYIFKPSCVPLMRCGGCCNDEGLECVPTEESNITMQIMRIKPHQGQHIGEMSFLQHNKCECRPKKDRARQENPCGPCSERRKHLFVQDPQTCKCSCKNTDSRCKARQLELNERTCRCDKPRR
Description: Free peptide binding ELISA (FLAG epitope probe), VEGF-coated wells. How it is done:
as §1

Data set [1] deals with MCF-7 human breast cancer cells. In kind it is cell-based. To be noted: human, 24 h, 2 μM. How it is done:
MTT (3-(4,5-dimethylthiazolyl-2)-2,5-diphenyltetrazolium bromide, Sigma) assays were performed under conditions of low serum (1%) to determine PlGF effects on cell viability, the toxicity of the peptides, and their effect on PlGF-mediated breast tumor cell growth (Mosmann, 1983, J Immunol Meth 65:55-63; Modrak et al., 2000, Biochem Biophys Res Commun 268:603-606). Peptide concentration was 1-2 μM, and the concentration of exogenous PlGF was 2 nM. The human breast tumor lines tested were: MDA-MB-231, MDA-MB-468 and MCF-7 (ATCC, Mannasses, Va.). Briefly, 96-well plates were seeded with 5-10×10^4 cells/ml in medium containing 1% fetal bovine serum (FBS). After 24 h, cells were treated with individual peptides at a concentration of 1-2 μM (4 binding peptides), in quadruplicate, and/or rhuPlGF at a 2-nM concentration. After the designated time points, 0.5 mg/ml MTT (5 mg/ml stock diluted 1:10 in RPMI medium with no serum) was added to the wells (Mosmann, 1983). When purple crystals were clearly visible in the cells, and the plate appeared to be fully developed, the reaction was terminated with acid alcohol (0.04M HCl in isopropanol). Absorbance of the dissolved crystals was read at 570 nm. The 24-h time point was chosen because the in vitro effects of PlGF on tumor cell migration were measurable at this time (see wound-healing assay below). These assays were also performed using medium with 10% FBS, with similar results.

For another data set, the system named is MDA-MB-231. The data set can be described thus: Wound-healing (motility) assay, MDA-MB-231. In kind it is cell-based, human. The settings on record: for Relative activity: unit assumed; for Migrating cells: 18-24 h. As for the experimental part:
(§2) MCF-7, MDA-MB-23 1, and MDA-MB-468 breast tumor cell lines or HECs were seeded onto sterile glass coverslips in Petri dishes or six-well plates. When the cells were 70-80% confluent, the monolayers were scratched with a sterile plastic pipet tip.
(§3) Inhibitor concentrations were 50 μM PD98059 (PD98) (mitogen activated protein kinase-kinase 1 [MEK1] inhibitor), 5 nM Wortmannin (phosphatidyl inositol 3 kinase [PI3K] inhibitor), or human recombinant soluble Flt-1 (sFlt-1) (R&D Systems). […] Cells were pre-incubated with PD98 and Wortmannin for 15-30 min before addition of PlGF. Stained (Wright-Giemsa) and mounted coverslips were examined microscopically. Five to ten 100× fields were evaluated by counting the number of cells separated from the wound edges and which appeared to be migrating toward the center of the wound. Results are reported as the average number of cells migrating into the wound/100× field. In some cases data from separate experiments were combined to accommodate inclusion of various treatments in the tables.
(§4) Antibody concentration was 1 μg/ml. MEK1 inhibitor, PD98059 (PD98), 50 μM. PI3K inhibitor, Wortmannin, 5 nM. […] Values for antibody and inhibitor treatments were from separate experiments which included all relevant controls. […] UT denotes untreated controls. *P<0.01 (ANOVA) compared to UT; † P<0.02 (ANOVA) compared to PlGF only. ‡ P<0.001 (ANOVA) compared to PlGF only.

The next data set concerns MCF-7. The data set can be described thus: Wound-healing (motility) assay, MCF-7. To be noted: for Relative activity: unit assumed; for Migrating cells: 18-24 h. It is filed as cell-based, human. How it is done:
as §2, §3, §4

The subject of another data set is MDA-MB-468. The data set can be described thus: Matrigel cell invasion assay, MDA-MB-468. In kind it is cell-based, human. To be noted: 48 h. As for the experimental part: Cellular invasion was determined by addition of 5×10^4cells to growth factor-reduced Matrigel invasion chambers (BD Biosciences Discovery Labware, Bedford, Mass.) (Taylor et al., 2003b; Passaniti et al., 1992, Lab Invest 67, 519-528). Additives to the Matrigel® plugs were pre-incubated together in a total volume of 100 μl PBS at RT for 10 min, after which each additive was added to the Matrigel. Growth factors (2.0 or 0.2 nM), peptide (2 μg/ml), or antibody (1 μg/ml) were added to cells in low serum (0.1% fetal bovine serum [FBS]) medium. Baseline and chemoattractant-based invasion (10% FBS) were included. The number of invading cells was determined by counting the number of cells on the bottom of the invasion chamber membrane after staining at 100× magnification after 24 h (MDA-MB-231) or 48 h (MCF-7, MDA-MB-468). The results of three to five separate experiments are presented.

In data set [2] the test system is microvessels in PlGF-containing Matrigel plugs. The data set can be described thus: Matrigel basement membrane plug angiogenesis assay. To be noted: PlGF-containing implants ± BP1, s.c.; PBS controls 16.2±11.4. It is filed as in vivo, nude mice. The text has this: To further investigate the effect of PlGF binding peptides on endothelial cell migration and angiogenesis, Matrigel basement membrane plugs containing PlGF, BP1, BP2, or PBS were implanted s.c. on the flanks of nude mice. The number of interior microvessels in the PBS controls was 16.2±11.4/mm^2. PlGF-only implants contained 28.9±17.2/mm^2 (1.8-fold vs. mock-treated implants), and implants with PlGF and BP1 contained only 12.3±13.0 microvessels/mm^2 (P<0.02).

Where [3] appears, read: PlGF 2 nM ± test agent, relative to PlGF-only value.
Where [4] appears, read: VEGF 2 nM ± test agent, relative to VEGF-only value.

With SHRYRLAIQLHASDSSSSCV [BP1], the “binding to PlGF (A490)” value on PlGF was 0.100±0.058. Moreover, the “binding to VEGF (in words)” value at VEGF165 (ELISA-based binding assay) is reported as “No measurable binding”. Moreover, the “binding to VEGF165 (A490)” value on VEGF165 (peptide with C-terminal FLAG epitope) worked out at 0.299±0.174. Also, the “viability lowered, peptide alone” value in data set [1] was determined as 21%. The Relative activity amounted to 32% in the data set with MDA-MB-231 (setting [3]), 132% with MDA-MB-231 (setting [4]), 45% in the data set with MCF-7 (setting [3]) and 102% in the data set on MCF-7 (setting [4]). Also, the “effect on PlGF-stimulated motility (in words)” value with MDA-MB-231 (antibody 1 μg/ml, peptide 2 μM) is reported as “inhibited”; in the data set on MCF-7 (antibody 1 μg/ml, peptide 2 μM), “inhibited”. Further, the Migrating cells in the data set with MDA-MB-231 (growth factor PlGF 2 nM ± test agent (Flt-1 2 nM, peptide 2 μM, antibody 1 μg/ml, PD98059 50 μM, Wortmannin 5 nM)) is given as 13.6 ± 6.1† cells/100× field; in the data set on MDA-MB-231 (growth factor VEGF 2 nM ± test agent (peptide 2 μM, antibody 1 μg/ml)), 14.7 ± 2.1 cells/100× field; in the data set on MCF-7 (growth factor PlGF 2 nM ± test agent (Flt-1 2 nM, peptide 2 μM, antibody 1 μg/ml)) it was 10.2 ± 7.8† cells/100× field; with MCF-7 (growth factor VEGF 2 nM ± test agent), 12.9 ± 2.9 cells/100× field. The “Average fold-change in the number of cells on the membrane compared to untreated controls” value came out at 0.6 ± 0.4 fold in the data set with MDA-MB-468 (PlGF 0.2 nM ± peptide 2 μg/ml) and 1.2 ± 0.3 fold in the data set on MDA-MB-468 (peptide 2 μg/ml alone). The interior microvessels in data set [2] is listed as 12.3±13.0 /mm^2.

The values are drawn from US7642239B2, “Inhibition of placenta growth factor (PLGF) mediated metastasis and/or angiogenesis” (Center for Molecular Medicine and Immunology, priority 2005, dated 2010).
